A short description of test [1]: Antiproliferative activity against human PANC1 cells after 72 hrs by MTT assay. The format is functional, cell-based. Conditions: PANC-1, 72 h. (In general: Tetrazolium assays rely on reduction of a dye to a coloured formazan, in cell work by metabolically active cells.)
The test system of test [2] is MCF7. Description: Antiproliferative activity against human MCF7 cells after 72 hrs by MTT assay. The format is functional, cell-based. Particulars: MCF7, 72 h.
Test [3] has as its system HT-29. Description: Antiproliferative activity against human HT-29 cells after 72 hrs by MTT assay. Format: functional, cell-based. Particulars: HT-29, 72 h.
Test [4] is described as follows: Antiproliferative activity against human HL60 cells after 72 hrs by MTT assay. The format is functional, cell-based. Particulars: HL-60, 72 h.
Test [5] is described as follows: Antiproliferative activity against human DU145 cells after 72 hrs by MTT assay. Format: functional, cell-based. Conditions: DU-145, 72 h.
Test [6] deals with A549. Description: Antiproliferative activity against human A549 cells after 72 hrs by MTT assay. Particulars: A549, 72 h. The format is functional, cell-based.
For test [7], the system named is MCF7. Description: Antiproliferative activity against human MCF7 cells at 30 uM after 72 hrs by MTT assay. Format: functional. Particulars: MCF7, 72 h.
Test [8] can be described thus: Antiproliferative activity against human PANC1 cells at 30 uM after 72 hrs by MTT assay. Conditions: PANC-1, 72 h. Format: functional.
The nature of test [9]: Antiproliferative activity against human HL60 cells at 30 uM after 72 hrs by MTT assay. The format is functional. Conditions: HL-60, 72 h.
In test [10] the test system is HT-29. Put plainly: Antiproliferative activity against human HT-29 cells at 30 uM after 72 hrs by MTT assay. Conditions: HT-29, 72 h. The format is functional.
A short description of test [11]: Antiproliferative activity against human DU145 cells at 30 uM after 72 hrs by MTT assay. Conditions: DU-145, 72 h. The format is functional.
The subject of test [12] is A549. Description: Antiproliferative activity against human A549 cells at 30 uM after 72 hrs by MTT assay. Particulars: A549, 72 h. The format is functional.

This note sets out measurements from ChEMBL document CHEMBL3792336, “Synthesis and antitumor activity of ATB-429 derivatives containing a nitric oxide-releasing moiety” (Bioorg Med Chem Lett, 2016).

As a reminder, the IC50 is the concentration needed to halve the response being measured. As usually defined, the inhibition is the change of the read-out against control, counted positive when it falls.

In the case of `COc1cc2/c(=N/c3ccc(Br)cc3F)nc[nH]c2cc1OCC1CCN(C)CC1` [VANDETANIB], the IC50 stood at 4110 nM in test [1]; 3540 nM in [2]; 1920 nM in test [3]; 1490 nM in test [4]; 1970 nM in test [5]; 2630 nM in test [6].
`O=C(Nc1ccc(OC(=O)CCCO[N+](=O)[O-])c(C(=O)Oc2ccc(-c3cc(=S)ss3)cc2)c1)Nc1ccc(F)cc1F`: the inhibition at 30 µM is -6.87% in test [7]; -14.8% in test [8]; 0.43% in [9]; -6.41% in test [10]; -7.47% in [11]; -28% in test [12].
Consider `O=C(Nc1cccc(C(F)(F)F)c1)Nc1ccc(OC(=O)CCCO[N+](=O)[O-])c(C(=O)Oc2ccc(-c3cc(=S)ss3)cc2)c1`, for which the inhibition at 30 µM in test [7] is -6.78%; in test [8] it was -5.71%; in test [9], 14.1%; in [10], 13.2%; in [11] it was -14.2%; in [12], -22.1%.
In the case of `O=C(Nc1cccc(Cl)c1)Nc1ccc(OC(=O)CCCO[N+](=O)[O-])c(C(=O)Oc2ccc(-c3cc(=S)ss3)cc2)c1`, the inhibition at 30 µM in test [7] was 6.1%; in test [8] it was -17.3%; in [9], 10.9%; in test [10], 21.5%; in test [11] it was 5.49%; in test [12], -23.3%.
For `Nc1ccc(OC(=O)CCCO[N+](=O)[O-])c(C(=O)Oc2ccc(-c3cc(=S)ss3)cc2)c1`, the inhibition at 30 µM is -5.55% in [7]; -10.5% in test [8]; 8.73% in test [9]; -13.3% in [10]; -7.67% in test [11]; -18.4% in test [12].
For the molecule `CC(C)(C)OC(=O)Nc1ccc(OCCCOc2no[n+]([O-])c2S(=O)(=O)c2ccccc2)c(C(=O)Oc2ccc(-c3cc(=S)ss3)cc2)c1`, the inhibition at 30 µM is 25.2% in test [7]; 97.4% in [8]; 84% in [9]; 103% in [10]; 67.9% in test [11]; -23.8% in test [12]. Further, the IC50 came to 3020 nM in [1] and 926 nM in [3].
For `Cc1cccc(NC(=O)Nc2ccc(OC(=O)CCCO[N+](=O)[O-])c(C(=O)Oc3ccc(-c4cc(=S)ss4)cc3)c2)c1`, the inhibition at 30 µM in [7] is 13.9%; in test [8] it was -14.2%; in [9], 7.34%; in test [10], 9.56%; in test [11], -19.3%; in test [12], -19.8%.
As to `COc1ccc(NC(=O)Nc2ccc(OC(=O)CCCO[N+](=O)[O-])c(C(=O)Oc3ccc(-c4cc(=S)ss4)cc3)c2)cc1`, the inhibition at 30 µM in test [7] is 16%; in test [8], 2.19%; in [9] it was 8.3%; in test [10], 12.1%; in [11], -6.39%; in test [12] it was 3.19%.
In the case of `O=C(Nc1ccc(F)cc1)Nc1ccc(OC(=O)CCCO[N+](=O)[O-])c(C(=O)Oc2ccc(-c3cc(=S)ss3)cc2)c1`, the inhibition at 30 µM in [7] was 19.1%; in test [8], -12.9%; in [9] it was 8.68%; in test [10], 6.92%; in test [11], 15.3%; in [12], -27.2%.
For `Nc1ccc(OCCCOc2no[n+]([O-])c2S(=O)(=O)c2ccccc2)c(C(=O)Oc2ccc(-c3cc(=S)ss3)cc2)c1`, the inhibition at 30 µM in test [7] amounted to 92.1%; in test [8], 97.5%; in test [9] it was 87.3%; in [10], 103%; in [11], 94.8%; in [12] it was 100%. Also, the IC50 is 971 nM in [1]; 3050 nM in test [2]; 559 nM in test [3]; 2240 nM in [5]; 3280 nM in [6].
On to `CC(C)(C)OC(=O)Nc1ccc(OCCOCCOc2no[n+]([O-])c2S(=O)(=O)c2ccccc2)c(C(=O)Oc2ccc(-c3cc(=S)ss3)cc2)c1`, for which the inhibition at 30 µM was determined as 63.1% in test [7]; 97.9% in test [8]; 84.5% in test [9]; 103% in [10]; 54.7% in test [11]; 18.7% in test [12]. In addition, the IC50 in test [1] turned out to be 2800 nM; in test [3] it was 536 nM.
On to `CC(C)(C)OC(=O)Nc1ccc(OCCOc2no[n+]([O-])c2S(=O)(=O)c2ccccc2)c(C(=O)Oc2ccc(-c3cc(=S)ss3)cc2)c1`, for which the inhibition at 30 µM in test [7] came out at 83.1%; in test [8], 97.1%; in test [9], 84.6%; in test [10] it was 103%; in [11] it was 61.6%; in test [12] it was 88.5%. Moreover, the concentration for half-maximal inhibition (IC50) in test [1] was found to be 1450 nM; in test [3], 256 nM.
For `Nc1ccc(OCCOCCOc2no[n+]([O-])c2S(=O)(=O)c2ccccc2)c(C(=O)Oc2ccc(-c3cc(=S)ss3)cc2)c1`, the inhibition at 30 µM in test [7] amounted to 90%; in [8], 97.1%; in test [9], 84.4%; in [10], 101%; in [11] it was 63.2%; in test [12], 62.8%. Besides, the half-maximal inhibitory concentration (IC50) in test [1] turned out to be 8000 nM; in test [2] it was 11900 nM; in [3] it was 5440 nM.
In the case of `Nc1ccc(OCCOc2no[n+]([O-])c2S(=O)(=O)c2ccccc2)c(C(=O)Oc2ccc(-c3cc(=S)ss3)cc2)c1`, the inhibition at 30 µM in test [7] came to 90.1%; in test [8], 96.6%; in [9] it was 92.3%; in test [10] it was 102%; in test [11], 93.8%; in test [12], 100%. Also, the IC50 in test [1] amounted to 1860 nM; in test [2], 2680 nM; in test [3], 769 nM; in test [4], 1880 nM; in [5], 1270 nM; in [6], 4170 nM.
